Data on 3 molecules can be found in patent publication US20230065437A1, “ACIDIZING OF SUBTERRANEAN FORMATIONS WITH PLACEMENT OF SCALE INHIBITOR” (priority 2021, published 2023).

In brackets after ≈: the same amount, converted by molar mass.

For data set [1] the following is noted: cited from earlier work.
The nature of data set [2]: Solubility of PMIDA in water and HCl at various temperatures and pressures. It counts as physicochemical. Particulars: for solubility thermodynamic: aqueous buffer, thermodynamic from solid. An excerpt: In certain embodiments, the organophosphorous compound comprising a phosphonoalkyl moiety is at least partially solubilized in the acid component. As used herein, the term “at least partially solubilized,” and grammatical variants thereof, with reference to the organophosphorous compound comprising a phosphonoalkyl moiety in the acid component refers to dissolution of at least about 2% weight per volume (w/v) of the organophosphorous compound comprising a phosphonoalkyl moiety in the acid component at room temperature. As used herein, the term “room temperature” refers to about 15° C. to about 25° C. The remaining excess organophosphorous compound comprising a phosphonoalkyl moiety may be suspended in the acid component while it is undergoing dynamic fluid flow at room temperature. As temperatures increase (e.g., as the treatment fluid is introduced into a subterranean formation and encounters downhole temperatures), the solubility of the organophosphorous compound comprising a phosphonoalkyl moiety in the acid component may increase. Indeed, the solubility of the organophosphorous compound comprising a phosphonoalkyl moiety increases as a function of acid concentration, and temperature.

On to `O=C(O)CN(CCO)CC(=O)O` [HEIDA, N-(2-hydroxyethyl)iminodiacetic acid], for which, in data set [1], the pKa values result was “about 2.2”.

As to `O=C([O-])CC(NC(C(=O)[O-])C(O)C(=O)[O-])C(=O)[O-].[Na+].[Na+].[Na+].[Na+]` (centres unmarked) [HIDS, tetrasodium 3-hydroxy-2,2′-iminodisuccinate], the pKa values result in data set [1] is “about 2.83”.

Broadly, the thermodynamic solubility is solubility found after equilibrating the solid with the medium. Regarding `O=C(O)CN(CC(=O)O)CP(=O)(O)O` [PMIDA, N-(phosphonomethyl)iminodiacetic acid], the thermodynamic solubility amounted to 17.4 mg/mL (≈ 76.6 mM) in data set [2] (7.5% HCl, 37.8 °C, Atm., 100° F.); 39.7 mg/mL (≈ 175 mM) in data set [2] (7.5% HCl, 65.6 °C, Atm., 150° F.); 20 mg/mL (≈ 88.1 mM) in data set [2] (10% HCl, 37.8 °C, Atm., 100° F.); 49.1 mg/mL (≈ 216 mM) in data set [2] (10% HCl, 65.6 °C, Atm., 150° F.); 101 mg/mL (≈ 445 mM) in data set [2] (10% HCl, 93.3 °C, Atm., 200° F.); 41.1 mg/mL (≈ 181 mM) in data set [2] (15% HCl, 37.8 °C, 200 psi, 100° F.). Also, the thermodynamic solubility in data set [2] (15% HCl, 37.8 °C, Atm., 100° F.) stood at 30.6 mg/mL (≈ 135 mM); in data set [2] (15% HCl, 65.6 °C, 200 psi, 150° F.), 95.7 mg/mL (≈ 421 mM); in data set [2] (15% HCl, 65.6 °C, Atm., 150° F.), 72.2 mg/mL (≈ 318 mM); in data set [2] (15% HCl, 93.3 °C, 200 psi, 200° F.) it was 203 mg/mL (≈ 896 mM); in data set [2] (15% HCl, 93.3 °C, Atm., 200° F.), 166 mg/mL (≈ 731 mM). Besides, in data set [2] (Atm., 7.5% HCl, 200° F.), the “Solubility Average” value is recorded as 10.00 w/v %.
